According to patent publication US10759905B2, “Biodegradable amphiphilic polymer, polymeric vesicles prepared therefrom, and application of biodegradable amphiphilic polymer in preparation of medicines for targeted therapy of lung cancer” (priority 2015, dated 2020):
Where a name gives a salt, the structure may show the parent alone.

Experiments:
[1] = tested on: H460 subcutaneous lung cancer; experiment: Anti-tumor effect in mice bearing H460 subcutaneous lung cancer; type: in vivo
Source text: The establishment of a subcutaneous H460 tumor-bearing mice model was the same as that in Example 33.

[2] = tested on: H460 human lung cancer cells; experiment: MTT assay, toxicity of drug-loaded vesicles on H460 cells; type: cell-based; settings: NCI-H460, 4 h co-cultivation, then 44 h in fresh medium
Method: MTT assay was used to test the toxicity of the polymeric vesicles on H460 human lung cancer cells. […] After co-cultivation for 4 hours, the samples were aspirated and replaced with fresh medium to continue incubation for 44 hours. The subsequent addition of MTT, treatment, and measurement of absorbance were the same as those in Example 26.

[3] = tested on: orthotopic A549 lung cancer (A549-Luc); settings: for bioluminescence intensity of the lung tumor / tumor growth: i.v. on Days 0, 4, 8 and 12, within 16 days; for survival of the mice (all survived / all dead): orthotopic A549
Method: Balb/C nude mice weighing approximately 18 to 20 grams (aged 4 to 6 weeks) were selected for the experiment. 5×10^6 bioluminescent A549 human lung cancer cells (A549-Luc) were directly injected in the lungs. After about 10 days, the mice were observed by an in vivo imaging system for small animals. […] From Day 0 to Day 16, the body weights of the mice were measured every four days. The bioluminescence intensity of the lung tumor in mice was monitored using an in vivo imaging system for small animals. The survival of the mice was observed up to 45 days.
The PTG-loaded cRGD/CLPs, the non-targeted self-crosslinked polymeric vesicle CLPs, Taxol, and PBS were injected into mice, respectively.

[4] = tested on: A549 subcutaneous lung cancer; experiment: Anti-tumor effect in mice bearing A549 subcutaneous lung cancer; type: in vivo; settings: i.v. on Day 0, 4, 8 and 12, DOX 10 mg/kg; Day 18
Method: The volumes of the tumor were measured by a vernier caliper. The tumor volume was calculated as: V=(L×W×H)/2 (wherein L was the tumor length, W was the tumor width, and H was the tumor thickness). The survival of the mice were observed up to 45 days.
The establishment of a subcutaneous A549 tumor-bearing mice model, administration via tail vein, and data collection were the same as those in Example 37.

A549 lung cancer cells = experiment: MTT assay, toxicity of drug-loaded vesicles on A549 cells; type: cell-based; settings: Homo sapiens, A549, read-out: half inhibition concentration (IC50) for A549 cells
Method: The toxicity of the polymeric vesicles on A549 cells was tested by MTT assay. […] The concentrations of DOX.HCl were 0.01, 0.1, 0.5, 1, 5, 10, 20 and 40 μg/mL, respectively. The content of the targeting molecules ranged from 10%, 20% to 30%; the non-targeted drug-loaded self-crosslinked polymeric vesicle group and the free DOX.HCl group were used as control groups. After co-cultivation for 4 hours, the samples were aspirated and replaced with fresh medium to continue incubation for 44 hours.

in vivo = settings: Balb/C nude, mouse, iv, 10 mg/kg

Structure (SMILES) | body weight decrease ([1]; Day 10) | tumor growth ([1]; i.v., CPT.HCl, Day 18) | survival of the mice (all survived / all dead) ([1]; subcutaneous H460) | IC50 [2] | body weight decrease ([3]; Day 3) | bioluminescence intensity of the lung tumor / tumor growth [3] | survival of the mice (all survived / all dead) [3] | tumor growth [4] | IC50 (A549 lung cancer cells) | half-life (in vivo)
CCc1c2c(nc3ccc(OC(=O)N4CCC(N5CCCCC5)CC4)cc13)-c1cc3c(c(=O)n1C2)COC(=O)[C@]3(O)CC [CPT.HCl, irinotecan hydrochloride] | 18% | could also inhibit the growth of tumor | ≤ 28 days | 3.09 µg/mL | 21% | could also inhibit the growth of tumor | ≤ 34 days | – | – | –
COc1cccc2c1C(=O)c1c(O)c3c(c(O)c1C2=O)C[C@@](O)(C(=O)CO)C[C@@H]3O[C@H]1C[C@H](N)[C@H](O)[C@H](C)O1 [DOX.HCl, doxorubicin hydrochloride] | – | – | – | – | – | could also inhibit the growth of tumor | ≤ 30 days | could also inhibit the growth of tumor | 4.89 µg/mL | 16.2 min
CC(=O)O[C@H]1C(=O)[C@@]2(C)[C@H]([C@H](OC(=O)c3ccccc3)[C@]3(O)C[C@H](OC(=O)[C@H](O)[C@@H](NC(=O)c4ccccc4)c4ccccc4)C(C)=C1C3(C)C)[C@]1(OC(C)=O)CO[C@@H]1C[C@@H]2O [PTX, paclitaxel] | – | – | – | – | – | could also inhibit the growth of tumor | ≤ 29 days | – | – | –
